According to patent US7259155B2, “Phosphonic diester derivatives” (Otsuka Pharmaceutical Factory, Inc., priority 2004, dated 2007):

Target: T1, ACAT-1 (Homo sapiens, UniProt P35610)
T1 construct: To 2.6 ml of broken homogenate having a protein concentration of 2.5 mg/ml was added 0.65 ml of 5×DOC/PC; endogenous in cells; host or cells: SW-13 cells (human adrenal cortical adenocarcinoma); broken homogenate solubilised with deoxycholate/PC and reconstituted into cholesterol/PC vesicles
T1 sequence (P35610 1-550): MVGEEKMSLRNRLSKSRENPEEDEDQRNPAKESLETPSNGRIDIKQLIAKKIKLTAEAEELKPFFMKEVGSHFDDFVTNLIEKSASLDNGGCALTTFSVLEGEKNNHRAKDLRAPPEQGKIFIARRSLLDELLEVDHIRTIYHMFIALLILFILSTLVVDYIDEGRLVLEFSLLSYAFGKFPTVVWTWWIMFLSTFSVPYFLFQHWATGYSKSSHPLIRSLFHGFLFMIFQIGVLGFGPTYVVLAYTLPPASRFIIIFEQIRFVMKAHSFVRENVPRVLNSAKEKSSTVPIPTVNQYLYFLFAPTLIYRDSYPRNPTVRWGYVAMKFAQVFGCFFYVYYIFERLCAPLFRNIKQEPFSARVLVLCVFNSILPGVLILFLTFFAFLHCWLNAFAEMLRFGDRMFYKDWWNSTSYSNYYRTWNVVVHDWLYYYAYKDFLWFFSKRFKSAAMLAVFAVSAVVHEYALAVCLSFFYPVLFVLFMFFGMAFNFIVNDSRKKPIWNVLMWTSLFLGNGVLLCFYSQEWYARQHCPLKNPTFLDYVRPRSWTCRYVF
Assay: ACAT-1 Inhibitory Action Test 1 (reconstituted vesicle assay, enzyme solution from SW-13 cell broken homogenate)
Format: biochemical
Details: test substance 1×10^−3 mol/l in DMSO, 2.5 μl added to 200 μl enzyme solution + 50 μl substrate solution; 37° C., 30 minutes; decrease in total cholesterol ester vs DMSO control
Method: SW-13 cells (derived from human adrenal cortical adenocarcinoma) were cultured on a culture plate until confluence in an L-15 culture medium containing 10% fetal bovine serum (FBS) in a carbon dioxide incubator.
Broken homogenates were collected according to a published procedure (hypotonic shock and scrapping method, Anal. Biochem., 116, 298–302 (1981)), subjected to protein quantitation (Bradford method), and stored at −80° C. till use.
Chol/PC vesicles (Chol/PC=3.9 mM/12.8 mM) were prepared according to a method described by Chang et al. (Chang, T. Y. et al., Anal. Biochem., 157, 323–330 (1986)). […]
With respect to the hexane phase in the glass test tube, the solvent was removed under a nitrogen gas stream. […] Using a bio-imaging analyzer (BAS-2000II, manufactured by Fuji Photo Film Co., Ltd.), the ^14C of the cholesterol ester fraction was quantified.
With respect to the hexane phase in the scintillation vial, ^3H was counted after adding a scintillation cocktail. Based on the amount of ^3H in the [^3H]-cholesteryl oleate-containing ethanol, the extraction efficiency was calculated. Based on the extraction efficiency, the amount of total cholesterol ester produced was calculated. In comparison with the control, decrease in the amount of the total cholesterol ester produced when a test substance was used was expressed as ACAT-1 enzyme inhibition (%).

diethyl 4-(7-chloro-3-N-(4-methyl -benzylideneamin)-4(3H)-quinazolinon-2-yl)benzylphosphonate [Example 1]
ACAT-1 enzyme inhibition (%): 75%
